Several values for one entry are separate records, joined by “and”; a condition that tells them apart may be missing. Equal entries are not always repeated.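 Where inhibition never reached the appropriate level, the endpoint shown equals the highest concentration tested. Otherwise, values were interpolated linearly from a five-concentration, 48-hour dose response in 96-well plates. At the GI50, growth is halved. TGI denotes the concentration required for complete inhibition of growth.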
Tests used:
Experiment in all cases: inhibition of tumour cell growth, NCI panel, 48 h
SK-MEL-28 melanoma = tested on: SK-MEL-28 melanoma
NCI-H460 lung = tested on: NCI-H460 lung
UO-31 renal = tested on: UO-31 renal
SNB-19 CNS = tested on: SNB-19 CNS
SF-295 CNS = tested on: SF-295 CNS
HCC-2998 colon = tested on: HCC-2998 colon
TK-10 renal = tested on: TK-10 renal
SNB-75 CNS = tested on: SNB-75 CNS
M14 melanoma = tested on: M14 melanoma
HCT-15 colon = tested on: HCT-15 colon

Compound | GI50 (SK-MEL-28 melanoma) [µM] | TGI (SK-MEL-28 melanoma) | GI50 (NCI-H460 lung) [µM] | TGI (NCI-H460 lung) | GI50 (UO-31 renal) [µM] | TGI (UO-31 renal) [µM] | GI50 (SNB-19 CNS) [µM] | TGI (SNB-19 CNS) | GI50 (SF-295 CNS) [µM] | TGI (SF-295 CNS) | GI50 (HCC-2998 colon) [µM] | TGI (HCC-2998 colon) [µM] | GI50 (TK-10 renal) [µM] | TGI (TK-10 renal) | GI50 (SNB-75 CNS) [µM] | TGI (SNB-75 CNS) [µM] | GI50 (M14 melanoma) [µM] | TGI (M14 melanoma) | GI50 (HCT-15 colon) [µM] | TGI (HCT-15 colon)
CCCCCCCC(=O)SCC/C=C/[C@@H]1CC(=O)NCc2cccc(n2)C2=N[C@@](C)(CS2)C(=O)N[C@@H](C(C)C)C(=O)N1 | 1.02 | > 33.3 µM | 0.532 | > 33.3 µM | 4.54 | > 33.3 | 2.06 | > 33.3 µM | 0.804 | 8.59 µM | 1.02 | 7.48 | 1.09 | 24.8 µM | 0.223 | > 33.3 | 1.32 | > 33.3 µM | 14.3 | > 33.3 µM
O=c1n(CC2CO2)c(=O)n(CC2CO2)n1CC1CO1 (configuration not stated) | > 53.1 | > 100 µM | 0.416 | 30.8 µM | 7.86 | > 76.2 | 14.2 | > 100 µM | 3.65 | > 100 µM | 2.17 | 37.7 | 27.9 | > 100 µM | 15.8 | > 100 | 21.9 | > 100 µM | 11.1 | 44.3 µM
COc1cc(C(=O)/C=C/c2sc(Cl)nc2Cl)cc(OC)c1OC | 1.78 | 3.27 µM | 2.29 | 5.29 µM | 1.44 | 2.75 | 1.72 | 3.18 µM | 2.09 | 4.71 µM | 1.8 | 3.31 | 2.06 | 4.93 µM | 1.66 | 3.8 | 1.85 | 3.57 µM | 1.53 | 3 µM
CN(CC(=O)O)S(=O)(=O)c1ccc2ccccc2c1 | – | > 100 µM | – | > 100 µM | – | > 100 | – | > 100 µM | – | > 100 µM | – | > 100 | – | > 100 µM | – | > 100 | – | > 100 µM | – | > 100 µM
CC(=O)NC1=C(NCC(C)(C)C)C(=O)c2ccccc2C1=O | – | > 100 µM | – | > 100 µM | – | > 100 | – | > 100 µM | – | > 100 µM | – | > 100 | – | > 100 µM | – | > 100 | – | > 100 µM | – | > 100 µM
COc1ccc(/C=C\c2cc(OC)c3c(c2)OCO3)c(O)c1O | – | 24.1 µM | – | 22.2 µM | – | 12 | – | 23.6 µM | – | 36.8 µM | – | > 58 | – | > 86.6 µM | – | 15.5 | – | 11.7 µM | – | 59.8 µM
O=C(O)c1cc(C(=O)O)cc(N2C(=O)c3ccccc3C2=O)c1 | – | > 100 µM | – | > 100 µM | – | > 100 | – | > 100 µM | – | > 100 µM | – | > 100 | – | > 100 µM | – | > 100 | – | > 100 µM | – | > 100 µM
O=C1NNC(=O)c2ccccc2SSc2ccccc2C(=O)NNC(=O)c2ccccc2SSc2ccccc21 | 23.1 | 50 µM and > 100 µM | 31 | 50 µM and > 100 µM | – | > 100 | 6.35 | 50 µM and > 100 µM | 16.3 | 50 µM and > 100 µM | – | > 100 | 70.9 | 50 µM and > 100 µM | – | 50 | 6.28 | 50 µM and 32.5 µM | 4.61 | 50 µM and 37.1 µM
CC(C)=CCCc1c(C)ccc2c1C(=O)C(=O)C(C(C)C)=C2 | – | 6.92 µM | – | > 22 µM | – | > 22 | – | > 22 µM | – | > 22 µM | – | > 22 | – | 8.81 µM | – | > 22 | – | 7.95 µM | – | 7.14 µM
CCN(CC)CC(C(=O)Nc1c(C)cccc1C)/C(C)=N\NC(=O)C[N+](C)(C)C (configuration not stated) | – | > 100 µM | – | > 100 µM | – | > 100 | – | > 100 µM | – | > 100 µM | – | > 100 | – | > 100 µM | – | > 100 | – | > 100 µM | – | > 100 µM
CC(=O)N1[C@H](C(=O)O)CS[C@H]1c1ccncc1 | – | > 100 µM | – | > 100 µM | – | > 100 | – | > 100 µM | – | > 100 µM | – | > 100 | – | > 100 µM | – | > 100 | – | > 100 µM | – | > 100 µM
CCOC(=O)Nc1nc2ccc(OCC)cc2s1 | > 60.7 | > 100 µM | 6.28 | > 100 µM | > 100 | > 100 | > 100 | > 100 µM | > 100 | > 100 µM | 31.6 | > 100 | > 100 | > 100 µM | 22.7 | > 100 | 6.84 | > 100 µM | 5.12 | > 100 µM
CN(C)c1ccc(-c2cc(-c3ccc(Nc4nc(Nc5ccc(Cl)cc5)nc(Nc5ccc(Cl)cc5)n4)cc3)no2)cc1 | 6.49 | 46.9 µM | 3.03 | 12.3 µM | 2.69 | 17.7 | 18.7 | > 100 µM | 6.36 | 43.8 µM | 7.37 | 96.7 | 16.3 | > 100 µM | 5.12 | 28.1 | 2.62 | 13.3 µM | 5.2 | > 100 µM
Cn1ccnc1C(=O)/C=C/c1ccc(CC(=O)Nc2ccc(Br)cc2)cc1 | 3.32 | 7.63 µM | 3 | 8.51 µM | 2.19 | 4.39 | 2.61 | 5.75 µM | 3.22 | 8.89 µM | 2.95 | 5.9 | 6.21 | > 16.7 µM | 3.05 | > 16.7 | 2.63 | 6.07 µM | 2.5 | > 16.7 µM
COc1cc2cnc3c4cc(OC(C)C)c(OC)cc4ccc3c2cc1OC | – | > 100 µM | – | > 100 µM | – | > 100 | – | > 100 µM | – | > 100 µM | – | > 100 | – | > 100 µM | – | > 100 | – | > 100 µM | – | > 100 µM
Nc1cc2nc3ccccc3sc-2cc1=O | 2.12 | 4.04 µM | 2.9 | 10.2 µM | 1.33 | 3.36 | 6.13 | 20 µM | 2.44 | 7.35 µM | 3.95 | 13.3 | 5.72 | 16.2 µM | 2.59 | 7.71 | 1.66 | 3.2 µM | 1.44 | 11.1 µM
